Measurements: US11834469B2, “AMP-activated protein kinase activating compounds and uses thereof” (Skylark Bioscience LLC, priority 2018, dated 2023)

Tested on: HEK293 cells
Experiment: HEK293 Cytotoxicity Assay (CellTiterGlo, CC50)
Assay type: cell-based, human
Description: Some exemplary assays and examples for assessing therapeutic efficacy, e.g., anticancer effects, of exemplary compounds of the invention are described herein or are well known in the art. HEK293 is a human kidney cell line, and efficacy on HEK293 is considered to be predictive of usefulness for therapeutic treatment.
HEK293 cells were obtained from American Type Culture Collection (ATCC) (Rockville Md.). Cells were maintained in Dulbecco's modified Eagle's medium (DMEM) (Invitrogen, Carlsbad, Calif.) with 10% fetal bovine serum (FBS), 10 mM HEPES and 1 mM sodium pyruvate. Cells were grown at 37° C. in a humidified incubator with a gas phase of 5% CO2. Cells were grown for 24 hours in a Tripleflask (NUNC) to −95% confluence and then resuspended for dispensing at 125,000 cells/mL of DMEM, 10% FBS, 10 mM Hepes and 1 mM sodium pyruvate.
HEK293 cells were seeded in 96 well microtiter plates at 10000 cells/well. After 24 hours of incubation an equal volume of fresh media containing test compounds at given concentrations was added. Plates were then incubated and cells were allowed to proliferate for 48 hours at 37° C., 95% humidity, and 5% CO2. […] A solution of Promega CellTiterGlo (100 microliters) was added by Thermo Combi and the plates were allowed to sit for 10 minutes before reading on a Perkin-Elmer EnVision with US LUM settings for 0.1 sec per well. […]

SMILES | activity on HEK293 cells (CC50, 50% cytotoxic concentration) (at 500 uM, 48 hours with compound) | potency relative to AICAR in HEK293 assay (HEK293 cells, times the potency of AICAR)
COP(=O)(OC)OC[C@H]1O[C@@H](n2cnc(C(N)=O)c2N)[C@H](O)[C@@H]1O [SB00024] | inactive | 
NC(=O)c1ncn([C@@H]2O[C@H](COP(=O)(O)Oc3ccc([N+](=O)[O-])cc3)[C@@H](O)[C@H]2O)c1N [SB00039] |  | roughly 100 times
